The values that follow come from patent US7264808B2, “Synthetic peptide for neurological disorders” (priority 2000, dated 2007).

Data set [1] has as its system PC12 cells. Put plainly: Toxicity to PC12 cells. The format is cell-based, rat. The conditions noted are these: toxic concentration on PC12 cells.
Data set [2] deals with Anti-AD-10. Put plainly: ELISA titer of specimens with Anti-AD-10. The conditions noted are these: for ELISA titer Anti-AD-10: Table II, specimen coated. The format is binding, mice. Here is the method:
Adult Balb/C mice were used for immunization. The mice were used in compliance with the US Public Health Service Policy on humane care and use of animals. First injection consisted of the mixture 100 μg of each version of ADESH in 0.1 ml mixed with equal volume of Freund's complete adjuvant/mouse. The subsequent injections consisted of the mixture 100 μg of ADESH and equal volume of incomplete Freund's adjuvant/mouse. The mice were injected intramuscularly (IM) six times two weeks apart. At the end of the immunization the mice were bled through the ophthalmic veins and serum was separated.
(§1) Enzyme-Linked Immunosorbent Assay (ELISA): The binding affinity of Anti-ADESH made against ADESH consisting of ten amino acids (AD-10), to various specimens known to contain NGF, such as venoms, body fluids, saliva, serum, urine etc. was studied by ELISA. The ELISA binding of Anti-AD-10 was compared to Anti-NGF made against cobra venom. ELISA tests were performed in 96 well microtiter plate. The wells of the plate were coated with one concentration of antigen, diluted in PBS each well receiving 100 μL. The plate was incubated at room temperature (RT) for 16 to 18 hours after which it was three times (3×) with PBS. The wells of the plate were blocked with 0.25 ml/well of 3% Teleostean gelatin from cold water fish (Sigma) for ½ hour at RT. Anti-AD-10 and Anti-NGFs were diluted threefold in gelatin were added to the appropriate wells of ELISA plate, including positive and negative controls. The plate was incubated at 37° C. for 1 to 1.5 hours. After washing 3X times horseradish peroxidase conjugated with IgG made in goat (Sigma) was added and incubated for 1 hour. Finally, the plate was washed and reacted with O-Phenylenediamine Dihydrochloride (OPD) for color development. The test was after ½ hour for ELISA titers.
Background: In an ELISA, binding on a coated surface is turned into a signal by an enzyme label.

The subject of data set [3] is PC12 cells. Put plainly: Neurite outgrowth on PC12 cells. The format is cell-based, rat. The conditions noted are these: for Neurites on PC12: concentration producing neurite outgrowth, read after 72 hours. On the procedure: The trypsin digested fragments in various concentrations were tested for neurite out growth on PC12 cells. Tissue culture plate having 24 wells were seeded with 10^5 PC12 cells in serum free Dulbeco Modified Eagle's medium (DMEM). The results were read after 72 hours for neurite outgrowth. The fraction showing the most neurite outgrowth at the lowest concentration was sequenced for its amino acids composition. Sequencing was contracted out to the Protein Core Laboratory of Baylor College of Medicine, Houston, Tex.

For data set [4], the system named is Anti-V-NGF. Put plainly: ELISA titer of specimens with Anti-V-NGF. The conditions noted are these: in comparison to Anti-H-NGF. The format is binding. Here is the method:
as §1

For data set [5] the following is noted: cited from earlier work.
Data set [6] relates to NGF, NT-3 and bFGF. To be noted: animals; brain areas associated with memory loss; cited from earlier work.

As for “N L G E H P V C D S T D T W V (NLGEHPVCDSTDTWV; SYNTHESIZED. SIMILAR TO FRAGMENT 7-21 OF SEQ ID NO 1 ABOVE.) [AD-15, ID; NO: 2, first fifteen amino acids]”, the “Toxicity to PC12” value in data set [1] was more than 100 µg. The “ELISA titer Anti-AD-10” value in data set [2] amounted to 1800. Moreover, in data set [3], the “neurite outgrowth on PC12 cells (in words)” value (“neurite outgrowth” for short) is “biologically active in producing neurite outgrowth” and the “Neurites on PC12” value was 1 µg.

In the case of “N L G E H P V C D S (NLGEHPVCDS; SYNTHESIZED. SIMILAR TO FRAGMENT 7-16 OF SEQ. ID. NO. 1.) [AD-10]”, the “Toxicity to PC12” value in data set [1] is more than 100 µg. In addition, in data set [2], the “ELISA titer Anti-AD-10” value worked out at 2700. For the same molecule, in data set [3], the “neurite outgrowth” value is “biologically active in producing neurite outgrowth” and the “Neurites on PC12” value worked out at 1 µg.

For “ADESH: name of the inventive peptides; in b30 the synthetic ADESH consisting of ten amino acids (AD-10) (NLGEHPVCDS)”, in data set [4], the “reaction with Anti-V-NGF (in words)” value is listed as “react poorly”. Also, the “neurite outgrowth” value in data set [3] is given as “equally active as the fragment of the native NGF”.

Turning to “H-NGF saliva: NGF of human origin isolated from saliva”, the “ELISA titer Anti-AD-10” value in data set [2] was found to be 2700.

For “N L G E H (NLGEH; SYNTHESIZED. CORRESPONDS TO FRAGMENT 7-11 OF SEQ. ID. NO. 1.) [AD-5, ID; NO: 4, first five amino acids]”, the “Toxicity to PC12” value in data set [1] was more than 100 µg. For the same molecule, the “ELISA titer Anti-AD-10” value in data set [2] is on record as 600. Moreover, in data set [3], the “neurite outgrowth” value was “biologically active in producing neurite outgrowth” and the “Neurites on PC12” value was found to be 2 µg.

For the molecule `O=C(CCn1cnc2c(=O)[nH]cnc21)Nc1ccc(C(=O)[O-])cc1.[K+]` [AIT-082], the “absorption and activity after oral administration” value in data set [5] is “rapidly absorbed and active after oral administration”. Besides, the “activation of genes producing neurotrophic factors in brain” value in data set [6] is on record as “activate multiple genes in animals to produce three different neurotrophic factors”.

With “H-NGF serum: NGF of human origin isolated from serum”, in data set [2], the “ELISA titer Anti-AD-10” value is 2700.

Turning to “H-NGF urine: NGF of human origin isolated from urine”, in data set [2], the “ELISA titer Anti-AD-10” value was 2700.

B1: V-NGF (protein)
chain: EDHPVHNLGEHSVCDSVSAWVTKTTATDIKGNTVTVMENVNLDNKVYKEYFFETKCKNPNPEPSGCRGIDSSHWNSYCTETDTFIKALTMEGNQASWRFIRIETACVCVITKKKGN
B1: the “Toxicity to PC12” value in data set [1] was determined as 5 µg. In data set [2], the “reaction with Anti-AD-10 / Anti-ADESH (in words)” value was “react” and the “ELISA titer Anti-AD-10” value is 900. Besides, in data set [3], the “Neurites on PC12” value is 0.005 µg.
